From ChEMBL document CHEMBL1201862, “PubChem BioAssay data set” (2004)
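Step 1: Grow cells in 96-well plates. Step 2: Expose to compound for 48 hours at 5 concentrations. Step 3: Interpolate endpoints linearly; if unreached, use highest concentration. Abbreviation: GI50, concentration required for 50% inhibition of growth.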 Activity calls are given as the source filed them. Rule as the data show it: active = GI50 up to about 1.1 µM and inactive = higher.

Assays:
Experiment in all cases: DTP human tumour cell line panel, 48 h
[1] = system: A498
[2] = system: ACHN
[3] = system: HCC 2998
[4] = system: HCT-15
[5] = system: LOX IMVI
[6] = system: M14
[7] = system: MCF7
[8] = system: MDA-MB-231
[9] = system: Malme-3M
[10] = system: NCI-H226
[11] = system: OVCAR-3
[12] = system: OVCAR-5
[13] = system: OVCAR-8
[14] = system: SF-268
[15] = system: SK-MEL-28
[16] = system: SK-MEL-5
[17] = system: SK-OV-3
[18] = system: UACC-257
[19] = system: MOLT-4
[20] = system: HL-60

Row | Compound | GI50 [1] | GI50 [2] | GI50 [3] | GI50 [4] | GI50 [5] | GI50 [6] | GI50 [7] | GI50 [8] | GI50 [9] | GI50 [10] | GI50 [11] | GI50 [12] | GI50 [13] | GI50 [14] | GI50 [15] | GI50 [16] | GI50 [17] | GI50 [18] | GI50 [19] | GI50 [20]
1 | COC(=O)[C@]12CSC[C@H]1C[C@H](c1ccc(N(C)C)cc1)N2 | > 28.1 µM (inactive) | > 100 µM (inactive) | > 100 µM (inactive) | > 100 µM | > 100 µM (inactive) | > 100 µM (inactive) | > 100 µM (inactive) | > 100 µM (inactive) | > 100 µM (inactive) | > 100 µM (inactive) | > 100 µM (inactive) | > 100 µM (inactive) | > 100 µM (inactive) | > 100 µM (inactive) | > 100 µM (inactive) | > 100 µM (inactive) | > 100 µM (inactive) | > 100 µM (inactive) |  | 
2 | COc1cc2cc(C(=O)N3CC(CCl)c4c3cc(N)c3ccccc43)[nH]c2c(OC)c1OC (centres undefined) | < 0.01 µM (active) | < 0.01 µM (active) | < 0.01 µM (active) | < 0.01 µM | < 0.01 µM (active) | < 0.01 µM (active) | < 0.01 µM (active) | < 0.01 µM (active) | < 0.01 µM (active) | < 0.01 µM (active) | < 0.01 µM (active) | < 0.01 µM (active) | < 0.01 µM (active) | < 0.01 µM (active) | < 0.01 µM (active) | < 0.01 µM (active) | < 0.01 µM (active) | < 0.01 µM (active) | < 0.01 µM (active) | 
3 | C(=C/CCCN1O[C@@H](CCCCCCCCc2cccnc2)[C@H]2CCC[C@H]21)/CCCCCCCCCc1cccnc1 | 22.1 µM (inactive) |  |  | 24.8 µM | 12.7 µM (inactive) | 24 µM (inactive) | 15.7 µM (inactive) | 17.9 µM (inactive) | 15.4 µM (inactive) | 16.4 µM (inactive) | 17.1 µM (inactive) | 20 µM (inactive) | 31.6 µM (inactive) | 23.4 µM (inactive) | 21.3 µM (inactive) | 17.5 µM (inactive) | 19 µM (inactive) | 14.6 µM (inactive) | 21.7 µM (inactive) | 5.22 µM (inactive)
4 | C=C(C)CCC(=O)[C@](C)(O)[C@H]1[C@H](O)C[C@@]2(C)[C@@H]3CCc4c(cc(OC5OC(CO)C(O)C(O)C5O)c(O)c4C)C3(C)C(=O)C[C@]12C (some centres undefined) | > 100 µM (inactive) | > 100 µM (inactive) | > 100 µM (inactive) | > 100 µM | > 100 µM (inactive) | > 100 µM (inactive) | > 100 µM (inactive) | > 100 µM (inactive) | > 100 µM (inactive) | > 100 µM (inactive) | > 100 µM (inactive) | > 100 µM (inactive) | > 100 µM (inactive) | > 100 µM (inactive) | > 100 µM (inactive) | > 100 µM (inactive) | > 100 µM (inactive) | > 100 µM (inactive) | > 100 µM (inactive) | 
5 | O=C(O)C(Cc1c[nH]c2ccccc12)N1C(=O)c2ccccc2C1=O (centres undefined) | > 100 µM (inactive) | > 100 µM (inactive) | > 100 µM (inactive) | > 100 µM | > 100 µM (inactive) | > 100 µM (inactive) | > 100 µM (inactive) | > 100 µM (inactive) | > 100 µM (inactive) | > 100 µM (inactive) | > 100 µM (inactive) | > 100 µM (inactive) | 7.21 µM (inactive) | > 100 µM (inactive) | > 100 µM (inactive) | > 100 µM (inactive) | > 100 µM (inactive) | > 100 µM (inactive) |  | 
6 | COc1cc(S(=O)(=O)Nc2ccc(-c3csc(/N=C\c4ccccc4O)n3)cc2)ccc1Cl | > 100 µM (inactive) | 62.2 µM (inactive) |  | 51.4 µM | 35.5 µM (inactive) | 59 µM (inactive) | 22.6 µM (inactive) | 53.6 µM (inactive) | 39.3 µM (inactive) | > 100 µM (inactive) | 28.5 µM (inactive) | > 100 µM (inactive) | > 100 µM (inactive) | 42 µM (inactive) | 39.3 µM (inactive) | 70.5 µM (inactive) | > 100 µM (inactive) |  | 15.8 µM (inactive) | 24.4 µM (inactive)
7 | CCOP(=O)(OCC)Oc1c(OC)c2[nH]c(C(=O)OC)cc2c2c(C(=O)O)c[nH]c12 | > 100 µM (inactive) | > 100 µM (inactive) | > 100 µM (inactive) | > 100 µM | > 100 µM (inactive) | > 100 µM (inactive) | > 100 µM (inactive) | > 100 µM (inactive) | > 100 µM (inactive) |  | > 100 µM (inactive) | > 100 µM (inactive) | > 100 µM (inactive) | > 100 µM (inactive) | > 100 µM (inactive) | > 100 µM (inactive) | > 100 µM (inactive) | > 100 µM (inactive) | > 100 µM (inactive) | > 100 µM (inactive)
8 | C=C1C(=O)O[C@H]2C[C@@H]1[C@@H](O)[C@H](O)[C@@H](C)CCCC(C)=CCC[C@@]2(C)O | 51.2 µM (inactive) | 14.6 µM (inactive) | 25.3 µM (inactive) | 22.9 µM | 18.5 µM (inactive) | 13.6 µM (inactive) | 10.1 µM (inactive) | 28 µM (inactive) | 13 µM (inactive) |  | 15.1 µM (inactive) | 19.1 µM (inactive) | > 10 µM (inactive) | 22.6 µM (inactive) | 25.6 µM (inactive) | 14.3 µM (inactive) | 62.5 µM (inactive) | 15.2 µM (inactive) | 4.84 µM (inactive) | 15.1 µM (inactive)
9 | O=[N+]([O-])/C=C/c1cccc(F)c1 | 13.7 µM (inactive) | 2.54 µM (inactive) | 12 µM (inactive) | 2.21 µM | 0.912 µM (active) | 2.74 µM (inactive) | 1.05 µM (active) | 16.4 µM (inactive) | 15.8 µM (inactive) | 2.25 µM (inactive) | 2.39 µM (inactive) |  | 11.7 µM (inactive) | 12.4 µM (inactive) | 2.28 µM (inactive) | 4.5 µM (inactive) | 14.3 µM (inactive) | 3.79 µM (inactive) |  | 
10 | O=C(O)CCC(N/N=N/c1ccc(-c2nc3ccccc3[nH]2)cc1)C(=O)O (centres undefined) | > 100 µM (inactive) | 28.2 µM (inactive) |  | 34 µM | 43.1 µM (inactive) | 54.1 µM (inactive) | 23.1 µM (inactive) | > 100 µM (inactive) |  | > 100 µM (inactive) | 30.3 µM (inactive) | > 100 µM (inactive) | 34.8 µM (inactive) |  | > 100 µM (inactive) | 66.5 µM (inactive) | 59.7 µM (inactive) | > 100 µM (inactive) | 31.6 µM (inactive) | 37.2 µM (inactive)
11 | S=C1SCN(C2CCCCCCCCCCC2)CN1C1CCCCCCCCCCC1 | > 100 µM (inactive) | > 100 µM (inactive) |  | > 100 µM | > 100 µM (inactive) | > 100 µM (inactive) | 66.8 µM (inactive) | > 100 µM (inactive) | > 100 µM (inactive) | > 100 µM (inactive) | 34.7 µM (inactive) | > 100 µM (inactive) | > 100 µM (inactive) | > 100 µM (inactive) | > 100 µM (inactive) | > 100 µM (inactive) | > 100 µM (inactive) | > 100 µM (inactive) | 46.1 µM (inactive) | 38.2 µM (inactive)
12 | O=C(CSc1nc2ccc(I)cc2c(=O)n1Cc1ccccc1)Nc1ccc(Br)cc1 | 22.5 µM (inactive) | > 100 µM (inactive) |  | 36 µM | > 100 µM (inactive) | 56.5 µM (inactive) | > 100 µM (inactive) | 17.2 µM (inactive) | 16.6 µM (inactive) | 25.9 µM (inactive) | 63 µM (inactive) | 44.5 µM (inactive) | 13.4 µM (inactive) | 12.2 µM (inactive) | 49.4 µM (inactive) | 43.2 µM (inactive) | > 100 µM (inactive) |  | > 100 µM (inactive) | > 100 µM (inactive)
13 | CC(C)(C)n1[nH]c(=O)n(C(C)(C)C)c1=O | > 100 µM (inactive) | > 100 µM (inactive) | > 100 µM (inactive) | > 100 µM | > 100 µM (inactive) | > 100 µM (inactive) | > 100 µM (inactive) | > 100 µM (inactive) |  |  | > 100 µM (inactive) | > 100 µM (inactive) |  | > 100 µM (inactive) | > 100 µM (inactive) | > 100 µM (inactive) | > 100 µM (inactive) | > 100 µM (inactive) | > 100 µM (inactive) | > 100 µM (inactive)
14 | C/N=c1\sc2c(n1C)C(=O)c1ccccc1C2=O | 15.7 µM (inactive) | 5.81 µM (inactive) | 7.73 µM (inactive) | 2.03 µM | 1.27 µM (inactive) | 1.5 µM (inactive) | 1.65 µM (inactive) | 12.2 µM (inactive) | 0.331 µM (active) | 2.34 µM (inactive) | 3.44 µM (inactive) | 3.99 µM (inactive) | 3.2 µM (inactive) | 3.85 µM (inactive) | 1.96 µM (inactive) | 1.27 µM (inactive) | 31.2 µM (inactive) | 1.53 µM (inactive) | 5.15 µM (inactive) | 
15 | Cc1ccc2[nH]/c(=N/S(=O)(=O)c3cc(C)c(Cl)cc3S)[nH]c2c1 | 52.8 µM (inactive) | 41.2 µM (inactive) | > 100 µM (inactive) | 67.9 µM | 25.4 µM (inactive) | 97.7 µM (inactive) | 64.1 µM (inactive) | > 100 µM (inactive) | > 100 µM (inactive) |  | 91.2 µM (inactive) | > 100 µM (inactive) | 93.1 µM (inactive) | 39.8 µM (inactive) | 45.7 µM (inactive) | 31.3 µM (inactive) | > 100 µM (inactive) | > 100 µM (inactive) | 25.6 µM (inactive) | 28.8 µM (inactive)
